Results on 31 compounds are retold here after patent US7713963B2, “Acylated indanyl amines and their use as pharmaceuticals” (sanofi-aventis Deutschland GmbH, priority 2001, dated 2010).

Read-outs that look alike come from different tables or passages of the source.

For this experiment, the system named is eNOS promoter. In words: Activation of eNOS transcription (eNOS promoter-luciferase reporter gene assay). It counts as cell-based, human. The conditions noted are these: for maximal fold induction: read-out: TIR (max). The procedure: Measurement of activation of eNOS transcription Activation of eNOS transcription was measured as described in detail in Li et al. “Activation of protein kinase C alpha and/or epsilon enhances transcription of the human endothelial nitric oxide synthase gene”, Mol. Pharmacol. 1998; 53: 630-637. Briefly, a 3.5 kB long fragment 5′ of the starting codon of the eNOS gene was cloned, sequenced and cloned in firefly luciferase expression plasmids to monitor activation of the eNOS promoter by reporter gene activity. A human endothelial cell line stable transfected and expressing this promoter-reporter construct was used for compound testing. Cells were incubated for 18 h with compounds. All compounds were dissolved in sterile DMSO. A final concentration of 0.5% DMSO in complete medium was allowed. Induction of reporter gene expression in these cells was measured using a standard luciferase assay system (Promega, Cat. No E150) according to the manufacturer's instructions. Luciferase induction in cells incubated with compounds were compared to those incubated with solvent alone. The ratio of both activities (transcription induction ratio, TIR) was plotted as a function of compound concentration. […] EC50 values of transcription induction ratios as a function of compound concentration were determined graphically.

[1] abbreviates: Homo sapiens, 18 h, maximum transcription induction ratio (luciferase with compound / solvent alone), 18 h incubation.
[2] abbreviates: Homo sapiens, Endothelial cell, 18 h, EC50 of transcription induction ratio, determined graphically, human endothelial cell line, 18 h incubation, read-out: EC-50.
The mark [3] stands for this setting: EC50 of transcription induction ratio, determined graphically, human endothelial cell line, 18 h incubation, read-out: EC-50.

With `CC(=O)Oc1cc(C)ccc1C(=O)NC1Cc2ccccc2C1` [Compound 7, ACETIC ACID 2-(INDAN-2-YL-CARBAMOYL)-5-METHYL-PHENYLESTER], the maximal fold induction (Homo sapiens, 18 h) was found to be 2.57. This compound also gave an EC50 (Homo sapiens, Endothelial cell, 18 h) of 0.1 µM.
In the case of `Cc1cc(C)c(C(=O)NC2Cc3ccccc3C2)cn1` [Compound 189, N-INDAN-2-YL-4,6-DIMETHYL-NICOTINAMIDE], under setting [1], the maximal fold induction came out at 2.2. Besides, under setting [2], the EC50 stood at 10 µM.
With `Cc1ccc(C(=O)Nc2cccc(C(=O)NC3Cc4ccccc4C3)c2)cc1` [Compound 381, 3-(4-METHYL-BENZOYLAMINO)-BENZOIC ACID INDAN-2-YLAMIDE], under setting [1], the maximal fold induction turned out to be 2.5. In addition, the EC50 under setting [2] was determined as 12 µM.
On the same counts, the results for `O=C(NC1Cc2ccccc2C1)c1cc2cc(Cl)ccc2[nH]1` [Compound 315, 5-CHLORO-1H-INDOLE-2-CARBOXYLIC ACID INDAN-2-YLAMIDE] are 2.2 and 16 µM.
On to `Cc1sccc1C(=O)NC1Cc2ccccc2C1` [Compound 365, 2-METHYL-THIOPHENE-3-CARBOXYLIC ACID INDAN-2-YLAMIDE], for which, under setting [1], the maximal fold induction is 3. In addition, under setting [2], the EC50 is 0.25 µM.
Consider `O=C(NC1Cc2ccccc2C1)c1cc(F)c(Cl)cc1Cl` [Compound 262, 2,4-DICHLORO-5-FLUORO-N-INDAN-2-YL-BENZAMIDE], for which, under setting [1], the maximal fold induction is 2.8. Under setting [2], the EC50 was determined as 5.8 µM.
On the same counts, the results for `O=C(NC1Cc2ccccc2C1)c1ccccc1Br` [Compound 272, 2-BROMO-N-INDAN-2-YL-BENZAMIDE] are 2.9 and 1.6 µM.
On the same counts, the results for `CC(C)S(=O)(=O)c1csc(C(=O)NC2Cc3ccccc3C2)c1Cl` [Compound 265, 3-CHLORO-4-(PROPANE-2-SULFONYL)-THIOPHENE-2-CARBOXYLIC ACID INDAN-2-YLAMIDE] are 2.7 and 0.183 µM.
On the same counts, the results for `Cc1nc(C(F)(F)F)ccc1C(=O)NC1Cc2ccccc2C1` [Compound 237, N-INDAN-2-YL-2-METHYL-6-TRIFLUOROMETHYL-NICOTINAMIDE] are 2.5 and 7.7 µM.
With `CC(C)C(=O)Nc1cccc(C(=O)NC2Cc3ccccc3C2)c1` [Compound 372, N-INDAN-2-YL-3-ISOBUTYRYLAMINO-BENZAMIDE], the maximal fold induction under setting [1] was 2.7. In addition, the EC50 under setting [2] is 1.6 µM.
On the same counts, the results for `CCOc1ccc(C(=O)NC2Cc3ccccc3C2)c(OC(C)=O)c1` [Compound 6, ACETIC ACID 5-ETHOXY-2-(INDAN-2-YL-CARBAMOYL)-PHENYL ESTER] are 2.55 and 1.2 µM.
On the same counts, the results for `O=C(NC1Cc2ccccc2C1)c1cccc(Cl)c1` [Compound 283, 3-CHLORO-N-INDAN-2-YL-BENZAMIDE] are 2.5 and 15 µM.
As for `Cc1cccc2c1CC(NC(=O)c1ccc(F)cc1)C2` (single isomer, unassigned; (-)) [Compound 1a, (−)-4-Fluoro-N-(4-methyl-indan-2-yl)-benzamide], under setting [3], the EC50 is 6 µM. In addition, the maximal fold induction under setting [1] came out at 2.8.
Regarding `O=C(NC1Cc2cccc(C=CC(=O)N3CCOCC3)c2C1)c1ccc(F)cc1` (centres unmarked) [Compound 412, 4-FLUORO-N-[4-(3-MORPHOLIN-4-YL-3-OXO-PROPENYL)-NDAN-2-YL]-BENZAMIDE], the EC50 under setting [3] came out at 1 µM. In addition, the “TIR (max)” value (maximum transcription induction ratio (luciferase with compound / solvent alone), 18 h incubation) is on record as 2.5.
`Cc1c(C(=O)NC2Cc3ccccc3C2)oc2ccccc12` [Compound 319, 3-METHYL-BENZOFURAN-2-CARBOXYLIC ACID INDAN-2-YLAMIDE]: the maximal fold induction under setting [1] came to 2.4. For the same compound, under setting [2], the EC50 was 25 µM.
On the same counts, the results for `Cc1c(Cl)cccc1C(=O)NC1Cc2ccccc2C1` [Compound 257, 3-CHLORO-N-INDAN-2-YL-2-METHYL-BENZAMIDE] are 2.7 and 4.3 µM.
On the same counts, the results for `Nc1c(C(=O)NC2Cc3ccccc3C2)cnn1-c1ccccn1` [Compound 386A, 5-AMINO-1-PYRIDIN-2-YL-1H-PYRAZOLE-4-CARBOXYLIC ACID INDAN-2-YLAMIDE] are 3.3 and 5.1 µM.
On the same counts, the results for `O=C(NC1Cc2ccccc2C1)c1ccc(-n2ccnc2)cc1` [Compound 328, 4-IMIDAZOL-1-YL-N-INDAN-2-YL-BENZAMIDE] are 2.4 and 24 µM.
As to `O=C(NC1Cc2ccccc2C1)c1ccc(Cl)cc1Br` [Compound 331, 2-BROMO-4-CHLORO-N-INDAN-2-YL-BENZAMIDE], the maximal fold induction under setting [1] came to 2.8. Besides, the EC50 under setting [2] amounted to 0.147 µM.
For the compound `O=C(NC1Cc2ccccc2C1)c1ccc(F)c(Br)c1` [Compound 33, 3-BROMO-4-FLUORO-N-INDAN-2-YL-BENZAMIDE], the maximal fold induction under setting [1] turned out to be 3.3. Under setting [2], the EC50 is 4 µM.
On the same counts, the results for `CCCCCc1ccc(C(=O)NC2Cc3ccccc3C2)cc1` [Compound 293, N-INDAN-2-YL-4-PENTYL-BENZAMIDE] are 1.7 and 14 µM.
On the same counts, the results for `O=C(NC1Cc2ccccc2C1)c1ccoc1` [Compound 296, FURAN-3-CARBOXYLIC ACID INDAN-2-YLAMIDE] are 2.5 and 13 µM.
On the same counts, the results for `Cc1c(C(=O)NC2Cc3ccccc3C2)cnn1-c1ccc(Cl)cc1` [Compound 341, 1-(4-CHLORO-PHENYL)-5-METHYL-1H-PYRAZOLE-4-CARBOXYLIC ACID INDAN-2-YLAMIDE] are 2.5 and 22 µM.
As to `O=C(NC1Cc2ccccc2C1)c1ccc(Cl)nc1` [Compound 387, 6-CHLORO-N-INDAN-2-YL-NICOTINAMIDE], under setting [1], the maximal fold induction stood at 2.6. Besides, under setting [2], the EC50 turned out to be 32 µM.
On the same counts, the results for `O=C(NC1Cc2ccccc2C1)c1cc(F)c(Cl)cc1F` [Compound 263, 4-CHLORO-2,5-DIFLUORO-N-INDAN-2-YL-BENZAMIDE] are 2.5 and 13 µM.
In the case of `Cc1cc(C)c(C(=O)NC2Cc3ccccc3C2)c(C)c1` [Compound 282, N-INDAN-2-YL-2,4,6-TRIMETHYL-BENZAMIDE], the maximal fold induction under setting [1] was determined as 2.3. The EC50 under setting [2] was determined as 16 µM.
Turning to `CC(=O)Nc1cccc(C(=O)NC2Cc3ccccc3C2)c1Cl` [Compound 267, 3-ACETYLAMINO-2-CHLORO-N-INDAN-2-YL-BENZAMIDE], the maximal fold induction under setting [1] amounted to 2.5. Further, under setting [2], the EC50 was found to be 2.8 µM.
In the case of `O=C(NC1Cc2ccccc2C1)c1ccccc1Cl` [Compound 275, 2-CHLORO-N-INDAN-2-YL-BENZAMIDE], under setting [1], the maximal fold induction came out at 3. Moreover, under setting [2], the EC50 stood at 0.559 µM.
On the same counts, the results for `O=C(NC1Cc2c(I)ccc(I)c2C1)c1ccc(F)cc1` [Compound 429, N-(4,7-DIIODO-INDAN-2-YL)-4-FLUORO-BENZAMIDE] are 2.8 and 0.6 µM.
On the same counts, the results for `O=C(NC1Cc2ccccc2C1)c1ccc(F)c(F)c1F` [Compound 320, 2,3,4-TRIFLUORO-N-INDAN-2-YL-BENZAMIDE] are 3 and 12 µM.
Take `CCc1sccc1C(=O)NC1Cc2ccccc2C1` [Compound 366, 2-ETHYL-THIOPHENE-3-CARBOXYLIC ACID INDAN-2-YLAMIDE]: the maximal fold induction under setting [1] stood at 2.5. The EC50 under setting [2] turned out to be 37 µM.
